Laboratory results reported in EP4509511A1, “SUBSTITUTED SPIRO-ISOXAZOLINYL LACTAMS, SALTS THEREOF AND THEIR USE AS HERBICIDALLY ACTIVE SUBSTANCES” (Bayer Aktiengesellschaft, priority 2023, dated 2025).

Key:
[1] = system: POAAN; assay: Herbicidal post-emergence action - Part I; type: in vivo, Poa annua; details: one-leaf stage, rated visually after about 3 weeks vs untreated controls
Protocol: (§1) Seeds of mono- and dicotyledonous weed plants were placed in plastic pots in sandy loam soil (doubly sown with in each case one species of mono- or dicotyledonous weed plants per pot), covered with soil and cultivated in a greenhouse under controlled growth conditions. 2 to 3 weeks after sowing, the test plants were treated at the one-leaf stage. The compounds of the invention, formulated in the form of wettable powders (WP) or as emulsion concentrates (EC), were applied onto the green parts of the plants as aqueous suspension or emulsion with addition of 0.5% additive at a water application rate of 600 liters per hectare (converted). After the test plants had been kept in the greenhouse under optimum growth conditions for about 3 weeks, the activity of the preparations was rated visually in comparison to untreated controls. For example, 100% activity = the plants have died, 0% activity = like control plants. Tables B1 to B12, below, show the effects of selected compounds of the general formula (I) according to table 1 on various harmful plants and an application rate corresponding to 1280 g/ha or below obtained by the experimental procedure mentioned above. Table B1a: post-emergence activity at 1280g/ha against ABUTH in %

[2] = system: ABUTH; assay: Herbicidal post-emergence action - Part I; type: in vivo, Abutilon theophrasti; details: 320 g/ha, one-leaf stage, rated visually after about 3 weeks vs untreated controls
Protocol: as §1

[3] = system: ECHCG; assay: Herbicidal pre-emergence action - Part I; type: in vivo, Echinochloa crus-galli; details: 1280 g/ha, visual grading after ca. 3 weeks vs untreated controls
From the text: (§2) Seeds of mono- and dicotyledonous weed plants were sown in plastic pots (double sowings with one species of mono- and one species of dicotyledonous weed plants per pot), in sandy loam, and covered with soil. The compounds according to the invention, formulated in the form of wettable powders (WP) or as emulsifiable concentrates (EC), were applied to the surface of the covering soil as aqueous suspension or emulsion, with the addition of 0.5% of an additive, at an application rate of 600 1 of water per hectare (converted). Following treatment, the pots were placed in a greenhouse and kept under optimum growth conditions for the test plants. The visual grading of the damage to the test plants was carried out after ca. 3 weeks in comparison to untreated controls (herbicidaleffectinpercent(%):100%effect=plantshavediedoff,0%effect=ascontrolplants). [formula]
(§3) Tables A1 to A12, below, show the effects of selected compounds of the general formula (I) according to table 1 on various harmful plants and an application rate corresponding to 1280 g/ha or below obtained by the experimental procedure mentioned above. Table A1: pre-emergence activity at 1280g/ha against ABUTH in %

[4] = system: ECHCG; assay: Herbicidal post-emergence action - Part I; type: in vivo, Echinochloa crus-galli; details: one-leaf stage, rated visually after about 3 weeks vs untreated controls
Protocol: as §1

[5] = system: POAAN; assay: Herbicidal pre-emergence action - Part I; type: in vivo, Poa annua; details: visual grading after ca. 3 weeks vs untreated controls
From the text: as §2, §3

[6] = system: AMARE; assay: Herbicidal post-emergence action - Part I; type: in vivo, Amaranthus retroflexus; details: one-leaf stage, rated visually after about 3 weeks vs untreated controls
Protocol: as §1

[7] = system: MATIN; assay: Herbicidal pre-emergence action - Part I; type: in vivo, Matricaria inodora; details: visual grading after ca. 3 weeks vs untreated controls
From the text: as §2, §3

[8] = system: SETVI; assay: Herbicidal pre-emergence action - Part I; type: in vivo, Setaria viridis; details: 1280 g/ha, visual grading after ca. 3 weeks vs untreated controls
From the text: as §2, §3

[9] = system: KCHSC; assay: Herbicidal post-emergence action - Part I; type: in vivo, Kochia scoparia; details: 1280 g/ha, one-leaf stage, rated visually after about 3 weeks vs untreated controls
Protocol: as §1

[10] = system: VERPE; assay: Herbicidal post-emergence action - Part I; type: in vivo, Veronica persica; details: one-leaf stage, rated visually after about 3 weeks vs untreated controls
Protocol: as §1

[11] = system: AMARE; assay: Herbicidal pre-emergence action - Part I; type: in vivo, Amaranthus retroflexus; details: visual grading after ca. 3 weeks vs untreated controls
From the text: as §2, §3

[12] = system: MATIN; assay: Herbicidal post-emergence action - Part I; type: in vivo, Matricaria inodora; details: one-leaf stage, rated visually after about 3 weeks vs untreated controls
Protocol: as §1

[13] = system: STEME; assay: Herbicidal post-emergence action - Part I; type: in vivo, Stellaria media; details: one-leaf stage, rated visually after about 3 weeks vs untreated controls
Protocol: as §1

[14] = system: ABUTH; assay: Herbicidal pre-emergence action - Part I; type: in vivo, Abutilon theophrasti; details: visual grading after ca. 3 weeks vs untreated controls
From the text: as §2, §3

[15] = system: DIGSA; assay: Herbicidal pre-emergence action - Part I; type: in vivo, Digitaria sanguinalis; details: visual grading after ca. 3 weeks vs untreated controls
From the text: as §2, §3

[16] = system: KCHSC; assay: Herbicidal pre-emergence action - Part I; type: in vivo, Kochia scoparia; details: Table A10a, 1280 g/ha, visual grading after ca. 3 weeks vs untreated controls
From the text: as §2, §3

[17] = system: STEME; assay: Herbicidal pre-emergence action - Part I; type: in vivo, Stellaria media; details: visual grading after ca. 3 weeks vs untreated controls
From the text: as §2, §3

[18] = system: BRSNW; assay: Post-emergence effects on crop plants; type: in vivo, Brassica napus; details: 5 g/ha; Table F5a; crop plant
From the text: (§4) Seeds of mono- and dicotyledonous weed plants and crop plants were sown, in plastic or organic planting pots, in sandy loam, covered with soil and grown in a greenhouse under controlled growth conditions. 2 to 3 weeks after sowing, the test plants were sprayed in the single-leaf stage. The compounds according to the invention, formulated in form of wettable powders (WP) or as emulsifiable concentrates (EC), were sprayed onto the green plant parts as aqueous suspension or emulsion, with the addition of 0.5% of an additive, at an application rate of 600 1 of water/ha (converted). The test plants were placed in the greenhouse for ca. 3 weeks under optimum growth conditions, and then the effect of the preparations was assessed visually in comparison with untreated controls (herbicidal effect in percent (%): 100% effect = plants have died off, 0% effect = as control plants). Tables F1 to F5 below show the effects of selected compounds of the general formula (I) according to table 1 on various crop plants and an application rate corresponding to 320 g/ha or below obtained by the experimental procedure mentioned above. Table […]: post-emergence activity at 5g/ha against ZEAMX in %

[19] = system: VERPE; assay: Herbicidal post-emergence action - Part II; type: in vivo, Veronica persica; details: 20 g/ha; Table E8b
From the text: (§5) Seeds of mono- and dicotyledonous weed plants and crop plants were sown, in plastic or organic planting pots, in sandy loam, covered with soil and grown in a greenhouse under controlled growth conditions. 2 to 3 weeks after sowing, the test plants were sprayed in the single-leaf stage. The compounds according to the invention, formulated in form of wettable powders (WP) or as emulsifiable concentrates (EC), were sprayed onto the green plant parts as aqueous suspension or emulsion, with the addition of 0.5% of an additive, at an application rate of 600 1 of water/ha (converted). The test plants were placed in the greenhouse for ca. 3 weeks under optimum growth conditions, and then the effect of the preparations was assessed visually in comparison with untreated controls (herbicidal effect in percent (%): 100% effect = plants have died off, 0% effect = as control plants). Tables E1 to E10 below show the effects of selected compounds of the general formula (I) according to table 1 on various harmful plants and an application rate corresponding to 320 g/ha or below obtained by the experimental procedure mentioned above. Table E1a: post-emergence activity at 5g/ha against ABUTH in %

[20] = system: AMARE; assay: Herbicidal post-emergence action - Part II; type: in vivo, Amaranthus retroflexus
From the text: as §5

[21] = system: PHBPU; assay: Herbicidal post-emergence action - Part II; type: in vivo, Pharbitis purpurea
From the text: as §5

[22] = system: ABUTH; assay: Herbicidal post-emergence action - Part II; type: in vivo, Abutilon theophrasti; details: 20 g/ha; Table E1b
From the text: as §5

[23] = system: POLCO; assay: Herbicidal post-emergence action - Part II; type: in vivo, Polygonum convolvulus; details: 20 g/ha; Table E6
From the text: as §5

[24] = system: TRZAS; assay: Post-emergence effects on crop plants; type: in vivo, Triticum aestivum; details: crop plant
From the text: as §4

[25] = system: ZEAMX; assay: Post-emergence effects on crop plants; type: in vivo, Zea mays; details: crop plant
From the text: as §4

[26] = system: VIOTR; assay: Herbicidal post-emergence action - Part II; type: in vivo, Viola tricolor
From the text: as §5

N#Cc1ncccc1C1=NOC2(CCN(Cc3cccc(F)c3F)C2=O)C1 (racemic) [Compound I-41]
post-emergence activity at 80g/ha against POAAN in % ([1]; 80 g/ha): 90% | post-emergence activity at 320g/ha against POAAN in % ([1]; 320 g/ha): 90% | post-emergence activity at 1280g/ha against POAAN in % ([1]; 1280 g/ha): 90% | post-emergence activity at 320g/ha against ABUTH in % [2]: 100% | pre-emergence activity at 1280g/ha against ECHCG in % [3]: 100% | post-emergence activity at 320g/ha against ECHCG in % ([4]; 320 g/ha): 90% | post-emergence activity at 1280g/ha against ECHCG in % ([4]; 1280 g/ha): 100% | pre-emergence activity at 320g/ha and against POAAN in % ([5]; 320 g/ha): 100% | pre-emergence activity at 1280g/ha and against POAAN in % ([5]; 1280 g/ha): 100% | post-emergence activity at 80g/ha against AMARE in % ([6]; 80 g/ha): 90% | post-emergence activity at 320g/ha against AMARE in % ([6]; 320 g/ha): 90% | post-emergence activity at 1280g/ha against AMARE in % ([6]; 1280 g/ha): 100% | pre-emergence activity at 320g/ha against MATIN in % ([7]; 320 g/ha): 90% | pre-emergence activity at 1280g/ha against MATIN in % ([7]; 1280 g/ha): 100% | pre-emergence activity at 1280g/ha and against SETVI in % [8]: 100% | post-emergence activity at 1280g/ha against KCHSC in % [9]: 90% | post-emergence activity at 320g/ha against VERPE in % ([10]; 320 g/ha): 90% | post-emergence activity at 1280g/ha against VERPE in % ([10]; 1280 g/ha): 100% | pre-emergence activity at 320g/ha against AMARE in % ([11]; 320 g/ha): 90% | pre-emergence activity at 1280g/ha against AMARE in % ([11]; 1280 g/ha): 90% | post-emergence activity at 320g/ha against MATIN in % ([12]; 320 g/ha): 100% | post-emergence activity at 1280g/ha against MATIN in % ([12]; 1280 g/ha): 100% | post-emergence activity at 80g/ha against STEME in % ([13]; 80 g/ha): 100% | post-emergence activity at 320g/ha against STEME in % ([13]; 320 g/ha): 100% | post-emergence activity at 1280g/ha against STEME in % ([13]; 1280 g/ha): 100% | pre-emergence activity at 1280g/ha against ABUTH in % [14]: 100% | pre-emergence activity at 320g/ha against DIGSA in % ([15]; 320 g/ha): 90% | pre-emergence activity at 1280g/ha against DIGSA in % ([15]; 1280 g/ha): 100% | pre-emergence activity at 1280g/ha against KCHSC in % [16]: 90% | pre-emergence activity at 320g/ha against STEME in % ([17]; 320 g/ha): 90% | pre-emergence activity at 1280g/ha against STEME in % ([17]; 1280 g/ha): 90%

Cc1ccsc1C1=NOC2(CCN(Cc3sc(Cl)nc3C)C2=O)C1 (racemic) [Compound I-48]
pre-emergence activity at 1280g/ha against ABUTH in % [14]: 100%

COC(=O)CN1CCC2(CC(c3cc(-n4c(=O)cc(C(F)(F)F)n(C)c4=O)c(F)cc3Cl)=NO2)C1=O (racemic) [Compound I-58]
post-emergence activity against BRSNW [18]: 0% | post-emergence activity against VERPE [19]: 100% | post-emergence activity against AMARE ([20]; 5 g/ha, Table E2a): 80% | post-emergence activity against AMARE ([20]; 20 g/ha, Table E2b): 100% | post-emergence activity against PHBPU ([21]; 5 g/ha, Table E5a): 90% | post-emergence activity against PHBPU ([21]; 20 g/ha, Table E5b): 100% | post-emergence activity against ABUTH [22]: 90% | post-emergence activity against POLCO [23]: 100% | post-emergence activity against TRZAS ([24]; 5 g/ha, Table F2a): 10% | post-emergence activity against TRZAS ([24]; 20 g/ha, Table F2b): 20% | post-emergence activity against ZEAMX ([25]; 5 g/ha, Table F1a): 10% | post-emergence activity against ZEAMX ([25]; 20 g/ha, Table F1b): 20% | post-emergence activity against VIOTR ([26]; 5 g/ha, Table E9a): 80% | post-emergence activity against VIOTR ([26]; 20 g/ha, Table E9b): 100%
